Values after ≈ are worked out from the molar mass of the structure shown.
Key:
physchem = type: physicochemical; conditions: for solubility thermodynamic: aqueous with cosolvent or surfactant or cyclodextrin, thermodynamic from solid
Text: The equilibrium solubility of silymarin in two kinds of beer after the addition of the water-soluble mixture with the Silybum marianum polyphenols according to example 1 are shown in the following table: […]

[1] = Total amount of Silybum marianum polyphenols in bottled beer by HPLC; type: physicochemical; conditions: example 1 mixture dosed at 100 mg silymarin per liter; for Content in DIA beer: bottled DIA beer; for Content in PILS 12% beer: bottled PILS 12% beer; for Content in Non-alcoholic beer: bottled non-alcoholic beer
Method: The total amount of Silybum marianum polyphenols in beers was determined by HPLC in bottled beer as a sum of silymarin components.

solubility thermodynamic (physchem; equilibrium solubility in Lager Radegast Premium) [µg/mL] | solubility thermodynamic (physchem; equilibrium solubility in Non-alcoholic Radegast Birell) [µg/mL] | Content in DIA beer [1] [mg/L] | Content in PILS 12% beer [1] [mg/L] | Content in Non-alcoholic beer [1] [mg/L] | equilibrium solubility in Lager Radegast Premium (physchem) [µg/mL] | equilibrium solubility in Non-alcoholic Radegast Birell (physchem) [µg/mL] | Compound
66.1 (≈ 137 µM) | 61.7 (≈ 128 µM) | – | – | – | – | – | COc1cc([C@@H]2[C@H]3CO[C@@]4(O)C(=O)[C@@H]2C=C([C@H]2Oc5cc(O)cc(O)c5C(=O)[C@@H]2O)[C@@H]34)ccc1O [Silydianin]
– | – | 15.4 | 28.4 | 29.4 | 85.18 | 75.70 | COc1cc([C@@H]2Oc3cc([C@H]4Oc5cc(O)cc(O)c5C(=O)[C@@H]4O)ccc3O[C@H]2CO)ccc1O [Silybin B]
– | – | 5.7 | 15.1 | 11.5 | 43.03 | 38.22 | COc1cc([C@H]2Oc3cc([C@H]4Oc5cc(O)cc(O)c5C(=O)[C@@H]4O)ccc3O[C@@H]2CO)ccc1O [Silybin A]

The remaining lines, values behind:

Compound | solubility thermodynamic (physchem; equilibrium solubility in Lager Radegast Premium) [µg/mL] | solubility thermodynamic (physchem; equilibrium solubility in Non-alcoholic Radegast Birell) [µg/mL] | Content in DIA beer [1] [mg/L] | Content in PILS 12% beer [1] [mg/L] | Content in Non-alcoholic beer [1] [mg/L] | equilibrium solubility in Lager Radegast Premium (physchem) [µg/mL] | equilibrium solubility in Non-alcoholic Radegast Birell (physchem) [µg/mL]
COc1cc([C@@H]2Oc3c(O)cc([C@H]4Oc5cc(O)cc(O)c5C(=O)[C@@H]4O)cc3[C@H]2CO)ccc1O [Silychristin] | – | – | 32.7 | 42.1 | 40.5 | 187.51 | 176.46
silymarin | – | – | – | – | – | 436.17 | 400.31
Isosilybin A + B | – | – | 20.9 | 15.3 | 12.5 | 54.33 | 48.22
